Assays:
[1] = tested on: Trypanosoma cruzi bloodstream trypomastigotes (BTs); test: Screening against bloodstream trypomastigotes (resazurin); type: cell-based
Procedure: 2 × 10^6 Bloodstream trypomastigotes (BTs), obtained by cardiac puncture from infected BALB/c mice as previously described, were treated by adding the tested compounds at a concentration range from 50 to 0.1 µM in 96-well microplates (200 µL·well^−1) at 37 °C. After 24 h of treatment, resazurin sodium salt (Sigma-Aldrich) was added to be incubated for further 4 h. Finally, trypanocidal activity was determined following the same procedure as described to assess the trypanocidal activity in the epimastigotes. Each compound concentration was tested in triplicate in three independent experiments.

Trypanosoma cruzi = test: PCR of seven organs/tissues of treated BALB/c mice (Spliced Leader sequence); type: in vivo
Procedure: To assess the efficacy of potential candidates by confirming the absence of infection in the target locations, PCR was carried out at the end of the in vivo timeline (Figure 2C). PCR was positive in seven organs/tissues for the untreated (control) mice groups in both phases, showing the presence of the typical nested amastigotes of the chronic CD.
Infection was carried out by intraperitoneal inoculation of 5 × 10^5 BTs of T. cruzi per mouse in 0.2 mL PBS [56]. The mice were treated by oral route (~200 µL) once daily for 5 consecutive days. The treatment for mice treated in the acute and chronic phases began when the infection was confirmed (9th day post-infection (dpi)) and was established that the animals had entered the chronic phase (100th dpi), respectively.
The mice were divided into six groups (n = 3 per group): 0, negative control group (uninfected and untreated mice); I, positive control group (infected and untreated mice); II, BZN group (mice infected and treated with BZN); III, 8 group (mice infected and treated with 8); IV, 10 group (mice infected and treated with 10); V, 15 group (mice infected and treated with 15). The tested compounds and BZN were prepared at 2 mg·mL^−1 in an aqueous suspension vehicle containing 5% (v/v) DMSO and 0.5% (w/v) hydroxypropyl methylcellulose, as previously reported. Therefore, doses of 20 mg·kg^−1 per day were administered for 5 consecutive days, and vehicle only was administered in the negative and positive control groups.
(§1) All in vivo assays for the evaluation of compounds in the acute and chronic CD (Scheme 1)—monitoring of parasitemia, immunosuppression, PCR [59, 60], ELISA [56], and clinical analysis [56]—were performed as previously described. PCR was based on the Spliced Leader (SL) intergenic region sequence of T. cruzi (for detailed description, see literature reported previously).
Figure 2 (A) Parasitemia profiles of each group of mice infected with Trypanosoma cruzi and treated during the acute Chagas disease over a period of 55 days: control (untreated), benznidazole (BZN), 8, 10 and 15. Treatment days are represented in grey. […]. (B) Parasitemia reactivation by fresh blood in the chronic Chagas disease after the immunosuppression cycles for each group of mice treated during the acute and chronic phases of the disease: control (untreated), benznidazole (BZN), 8, 10, and 15. […]. (C) PCR analysis of seven organs/tissues with the Trypanosoma cruzi Spliced Leader (SL) intergenic region sequence in the chronic Chagas disease for each group of mice treated during the acute and chronic phases of the disease: (a) control (untreated), (b) benznidazole, (c) 8, (d) 10, and (e) 15.

[2] = type: in vivo; settings: BALB/c mice, 20 mg/kg per day for 5 days
Procedure: Finally, biochemical analyses were performed to assess the toxicity associated to the treatment of compound 8. Kidney, heart and liver biochemical markers were measured, including values from uninfected and BZN-treated mice (Table S2). […] The low toxicity allows compound 8 to be tested at higher doses, establishing an improved treatment schedule based on pharmacokinetics in order to reach a total parasite clearance.
as §1

Trypanosoma cruzi Fe-SOD = test: SOD enzymatic inhibition, Fe-SOD; type: biochemical; settings: at 100 µM
Procedure: (§2) Excreted Fe-SOD protein—obtained and quantified as previously described [64]—and commercial Cu/Zn-SOD from human erythrocytes (Sigma-Aldrich) were exposed to the tested compounds at a concentration range from 100 to 0.1 µM to determine in vitro activities using the method previously described.

[3] = target: T1, human erythrocytes CuZn-SOD (Homo sapiens, UniProt P00441); test: SOD enzymatic inhibition, CuZn-SOD; type: biochemical; settings: 100 to 0.1 µM, read-out: CuZn-SOD IC50 (in brackets)
T1 construct: commercial Cu/Zn-SOD from human erythrocytes (Sigma-Aldrich); purchased Sigma-Aldrich; host or cells: human erythrocytes
Procedure: as §2

T1 sequence (P00441 whole entry): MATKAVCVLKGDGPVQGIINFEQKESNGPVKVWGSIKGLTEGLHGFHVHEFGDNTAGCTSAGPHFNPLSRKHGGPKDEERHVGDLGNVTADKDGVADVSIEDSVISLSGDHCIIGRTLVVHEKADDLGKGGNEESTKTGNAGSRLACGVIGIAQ

FC(F)(F)c1ccc(C[Se][Se]Cc2ccc(C(F)(F)F)cc2)cc1 [compound 8]
Selectivity Index Trypomast. ([1]; IC50 Vero cells/IC50 trypomastigotes): 30
IC50 ([1]; Trypanosoma cruzi, Table 1, bloodstream trypomastigotes, 24 h treatment + 4 h resazurin, read-out: Activity IC50 Trypomast.): 1500 ± 300 nM
negative PCR (parasite-free locations) (Trypanosoma cruzi; mice treated in acute CD): 3/7
negative PCR (parasite-free locations) (Trypanosoma cruzi; mice treated in chronic CD): 4/7
death and body mass loss after treatment [2]: none of the mice died nor lost more than 10% body mass
kidney, heart and liver biochemical markers [2]: disturbed 2 days after treatment
Fe-SOD inhibition (Trypanosoma cruzi Fe-SOD): 100%
IC50 [3]: > 100000 nM

Source: publication PMC8147293, “Library of Selenocyanate and Diselenide Derivatives as In Vivo Antichagasic Compounds Targeting Trypanosoma cruzi Mitochondrion” (Pharmaceuticals, 2021)
